# Experimental data: patent publication US20260138959A1, “QUINAZOLINE DERIVATIVE COMPOUND AND USE THEREOF” (VORONOI INC., priority 2021, published 2026)
# Tests used:
# Ba/F3-TEL-PDGFRα(WT) = assay: Proliferation inhibitory activity on Ba/F3 cell (CellTiter-Glo, 72 hours), PDGFR-α; format: cell-based; conditions: Mus musculus, BaF3, read-out: Ba/F3 (nM) Tel-PDGFRα (GI50 class)
# Method: (§1) Ba/F3-TEL-PDGFRα(WT), Ba/F3-TEL-PDGFβ(WT), Ba/F3-c-KIT(D816V) (Kyinno, #KC-0138), c-KIT V560G/D816V, c-KIT D814Y were seeded at 3×10^3/100 μl/well in a clear bottom white 96-well plate. A culture solution containing compounds of 12 concentrations (0.00001-2 mM) serially diluted in 3 folds and the DMSO control group was added at 0.5 μl/well each to a final concentration of 0.00005-10 μM, and then incubated in a CO2 incubator at 37° C. for 72 hours. After 72 hours, the plate treated with the compound was taken out, CellTiter-Glo® Assay (Promega) solution was treated with 100 μl/well, followed by mixing well. After mixing well for about 10 minutes at room temperature, […] was measured using a microplate reader. The data were presented as percentages in proportion to treated cells based on the vehicle, GI50 (nM) values were calculated using GraphPad Prism 8.3.0 (GraphPad software Inc., San Diego).
# (§2) The inhibitory activities of Ba/F3 expressing PDGFR-α, PDGFR-β, c-KIT(D816V), c-KIT V560G/D816V, and c-KIT D814Y measured as described above were measured and shown in Table 7 below (A: GI50≤200 nM; B: 200 nM<GI50≤500 nM; C: GI50>500 nM).
# Ba/F3-c-KIT(D816V) = assay: Proliferation inhibitory activity on Ba/F3 cell (CellTiter-Glo, 72 hours), c-KIT(D816V); format: cell-based; conditions: Mus musculus, BaF3, read-out: Ba/F3 (nM) c-KIT (D816V) (GI50 class)
# Summary of the method: (§3)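 Read-out: CellTiter-Glo after 72 h at 37 °C compound exposure, expressed as percent of vehicle-treated cells, GI50 calculated. Engineered Ba/F3 cells (3×10^3/well) received twelve 3-fold serial dilutions, final 0.00005–10 μM.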
# c-KIT D816V = c-KIT D816V (Homo sapiens, UniProt P10721, D816V); assay: Enzyme inhibitory activity, ADP-Glo kinase assay, c-KIT(D816V); format: biochemical; parameters: purchased Signalchem C06-12LG; conditions: read-out: c-KIT (D816V) (IC50 class)
# Sequence of c-KIT D816V (P10721 26-976 D816V): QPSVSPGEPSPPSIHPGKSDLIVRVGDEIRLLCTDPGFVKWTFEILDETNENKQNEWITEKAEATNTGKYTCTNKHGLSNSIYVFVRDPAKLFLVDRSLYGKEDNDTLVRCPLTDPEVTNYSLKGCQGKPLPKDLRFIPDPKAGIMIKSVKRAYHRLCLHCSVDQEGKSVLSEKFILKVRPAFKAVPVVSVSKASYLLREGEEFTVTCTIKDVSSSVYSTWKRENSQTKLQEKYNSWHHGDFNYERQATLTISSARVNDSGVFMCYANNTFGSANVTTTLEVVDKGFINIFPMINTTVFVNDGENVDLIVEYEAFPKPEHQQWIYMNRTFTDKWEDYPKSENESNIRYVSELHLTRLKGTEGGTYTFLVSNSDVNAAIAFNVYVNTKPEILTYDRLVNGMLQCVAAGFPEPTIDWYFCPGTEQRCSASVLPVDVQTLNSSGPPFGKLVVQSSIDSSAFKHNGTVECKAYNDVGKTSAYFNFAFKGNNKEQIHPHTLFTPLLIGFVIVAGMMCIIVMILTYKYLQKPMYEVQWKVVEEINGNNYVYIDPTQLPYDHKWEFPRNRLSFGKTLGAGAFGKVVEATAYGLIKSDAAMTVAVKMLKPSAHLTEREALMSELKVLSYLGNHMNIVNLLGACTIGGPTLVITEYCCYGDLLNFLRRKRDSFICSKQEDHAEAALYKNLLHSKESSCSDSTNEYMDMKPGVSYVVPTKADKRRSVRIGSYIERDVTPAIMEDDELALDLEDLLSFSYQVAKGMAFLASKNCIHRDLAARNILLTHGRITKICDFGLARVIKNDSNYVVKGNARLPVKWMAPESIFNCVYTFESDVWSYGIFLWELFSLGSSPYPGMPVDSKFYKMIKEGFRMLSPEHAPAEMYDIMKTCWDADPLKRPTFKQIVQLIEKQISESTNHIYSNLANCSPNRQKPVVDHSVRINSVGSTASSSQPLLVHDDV
# Method: (§4) In order to evaluate the inhibitory activity of the compounds synthesized according to the above examples on PDGFR-α(wt), PDGFR-β(wt), c-KIT(wt), and c-KIT(D816V) kinases, the following method was performed. The compounds of examples were reacted with purified human PDGFR-α(wt) (Signalchem #P12-18G) enzyme, human PDGFR-β(wt) (Signalchem #P13-11G) enzyme, human c-KIT(wt) (Signalchem #K06-11BG) enzyme, human c-KIT(D816V) (Signalchem #C06-12LG) enzyme, and the enzyme inhibitory abilities were evaluated by the following method.
# (§5) The reaction buffer was used as a composition of 40 mM Tris-HCl pH7.4, 20 mM MgCl2, 0.5 mg/ml BSA, 50 μM DTT, and the reactions of all the tests were carried out on the reaction buffer. The compound was diluted in 12 steps using a serial dilution method from a 10 mM DMSO stock, and the enzyme activity was measured at a final compound concentration of 10˜0.00005645 μM. During the test, the enzyme activity was confirmed using in vitro ADP-Glo™ kinase assay (Promega) after reacting with the proper concentration of human PDGFR-α(wt) enzyme, human PDGFR-β(wt), human c-KIT(wt) enzyme, and human c-KIT(D816V) enzyme with purified ATP and enzyme substrate at 25° C. for 1˜2 hours. At a ratio of 2:2:1, an enzyme-active reaction solution, an ADP-Glo reaction solution, and an enzyme-active detection solution were reacted to measure the inhibition of the enzyme's activity with luminoscence. Based on the […] of the enzyme activity of the solvent control that was not treated with the compound, the degree of enzyme activity inhibition was calculated according to the treatment concentration of each compound, and the concentration of each compound that inhibits 50% of enzyme activity was determined as IC50 (nM) value and the value was obtained by using GraphPad Prism 8.3.0 (GraphPad software Inc., San Diego) software. (A: IC50≤50 nM; B: 50 nM<IC50≤100 nM; C: 100 nM<IC50≤500 nM; D: IC50>500 nM).
# human c-KIT(wt) = molecular target: T1, human c-KIT(wt) (Homo sapiens, UniProt P10721); assay: Enzyme inhibitory activity, ADP-Glo kinase assay, c-KIT(wt); format: biochemical; conditions: read-out: c-KIT (WT) (IC50 class)
# T1 construct: purchased Signalchem K06-11BG
# T1 sequence (P10721 26-976): as the sequence (P10721 26-976 D816V) above, with V791D counted along it
# Method: as §4, §5
# Ba/F3-TEL-PDGFβ(WT) = assay: Proliferation inhibitory activity on Ba/F3 cell (CellTiter-Glo, 72 hours), PDGFR-β; format: cell-based; conditions: Mus musculus, BaF3, read-out: Ba/F3 (nM) Tel-PDGFRβ (GI50 class)
# Summary of the method: as §3
# c-KIT V560G/D816V = assay: Proliferation inhibitory activity on Ba/F3 cell (CellTiter-Glo, 72 hours), c-KIT V560G/D816V; format: cell-based; conditions: Mus musculus, BaF3, c-KIT V560G/D816V cells, read-out: Cell (nM) c-KIT V560G/D816V (GI50 class)
# Summary of the method: as §3
# human PDGFR-α(wt) = molecular target: T2, human PDGFR-α(wt) (Homo sapiens, UniProt P16234); assay: Enzyme inhibitory activity, ADP-Glo kinase assay, PDGFR-α(wt); format: biochemical; conditions: read-out: PDGFR-α (IC50 class)
# T2 construct: purchased Signalchem P12-18G
# T2 sequence (P16234 24-1089): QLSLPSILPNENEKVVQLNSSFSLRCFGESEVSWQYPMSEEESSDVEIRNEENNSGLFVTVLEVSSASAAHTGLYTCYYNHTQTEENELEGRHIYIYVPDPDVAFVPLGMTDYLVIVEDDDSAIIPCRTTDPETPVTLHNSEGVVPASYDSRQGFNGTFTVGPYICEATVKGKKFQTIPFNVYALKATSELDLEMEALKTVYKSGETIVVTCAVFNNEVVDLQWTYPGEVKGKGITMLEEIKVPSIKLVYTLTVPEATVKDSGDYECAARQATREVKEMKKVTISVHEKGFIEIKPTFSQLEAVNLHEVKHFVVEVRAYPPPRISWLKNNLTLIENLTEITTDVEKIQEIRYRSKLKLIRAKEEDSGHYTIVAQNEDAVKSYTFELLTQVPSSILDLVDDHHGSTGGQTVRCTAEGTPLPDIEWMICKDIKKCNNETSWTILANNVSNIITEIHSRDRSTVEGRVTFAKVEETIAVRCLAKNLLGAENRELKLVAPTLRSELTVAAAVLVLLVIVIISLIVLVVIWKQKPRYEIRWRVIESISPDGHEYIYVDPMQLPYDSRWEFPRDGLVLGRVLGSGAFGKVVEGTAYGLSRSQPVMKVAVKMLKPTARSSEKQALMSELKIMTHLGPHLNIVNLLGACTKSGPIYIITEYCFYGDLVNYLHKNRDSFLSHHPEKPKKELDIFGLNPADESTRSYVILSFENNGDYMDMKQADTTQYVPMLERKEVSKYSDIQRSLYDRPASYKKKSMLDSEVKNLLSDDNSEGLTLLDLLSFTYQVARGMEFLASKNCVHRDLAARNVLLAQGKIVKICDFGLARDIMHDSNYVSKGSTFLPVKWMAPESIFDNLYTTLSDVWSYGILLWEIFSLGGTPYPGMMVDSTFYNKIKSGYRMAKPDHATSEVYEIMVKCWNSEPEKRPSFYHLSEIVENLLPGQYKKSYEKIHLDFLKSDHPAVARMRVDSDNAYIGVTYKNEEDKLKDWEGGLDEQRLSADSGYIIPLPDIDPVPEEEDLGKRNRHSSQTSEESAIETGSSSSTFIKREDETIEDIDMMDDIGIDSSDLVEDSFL
# Method: as §4, §5
# human PDGFR-β(wt) = molecular target: T3, human PDGFR-β(wt) (Homo sapiens, UniProt P09619); assay: Enzyme inhibitory activity, ADP-Glo kinase assay, PDGFR-β(wt); format: biochemical; conditions: read-out: PDGFR-β (IC50 class)
# T3 construct: purchased Signalchem P13-11G
# T3 sequence (P09619 33-1106): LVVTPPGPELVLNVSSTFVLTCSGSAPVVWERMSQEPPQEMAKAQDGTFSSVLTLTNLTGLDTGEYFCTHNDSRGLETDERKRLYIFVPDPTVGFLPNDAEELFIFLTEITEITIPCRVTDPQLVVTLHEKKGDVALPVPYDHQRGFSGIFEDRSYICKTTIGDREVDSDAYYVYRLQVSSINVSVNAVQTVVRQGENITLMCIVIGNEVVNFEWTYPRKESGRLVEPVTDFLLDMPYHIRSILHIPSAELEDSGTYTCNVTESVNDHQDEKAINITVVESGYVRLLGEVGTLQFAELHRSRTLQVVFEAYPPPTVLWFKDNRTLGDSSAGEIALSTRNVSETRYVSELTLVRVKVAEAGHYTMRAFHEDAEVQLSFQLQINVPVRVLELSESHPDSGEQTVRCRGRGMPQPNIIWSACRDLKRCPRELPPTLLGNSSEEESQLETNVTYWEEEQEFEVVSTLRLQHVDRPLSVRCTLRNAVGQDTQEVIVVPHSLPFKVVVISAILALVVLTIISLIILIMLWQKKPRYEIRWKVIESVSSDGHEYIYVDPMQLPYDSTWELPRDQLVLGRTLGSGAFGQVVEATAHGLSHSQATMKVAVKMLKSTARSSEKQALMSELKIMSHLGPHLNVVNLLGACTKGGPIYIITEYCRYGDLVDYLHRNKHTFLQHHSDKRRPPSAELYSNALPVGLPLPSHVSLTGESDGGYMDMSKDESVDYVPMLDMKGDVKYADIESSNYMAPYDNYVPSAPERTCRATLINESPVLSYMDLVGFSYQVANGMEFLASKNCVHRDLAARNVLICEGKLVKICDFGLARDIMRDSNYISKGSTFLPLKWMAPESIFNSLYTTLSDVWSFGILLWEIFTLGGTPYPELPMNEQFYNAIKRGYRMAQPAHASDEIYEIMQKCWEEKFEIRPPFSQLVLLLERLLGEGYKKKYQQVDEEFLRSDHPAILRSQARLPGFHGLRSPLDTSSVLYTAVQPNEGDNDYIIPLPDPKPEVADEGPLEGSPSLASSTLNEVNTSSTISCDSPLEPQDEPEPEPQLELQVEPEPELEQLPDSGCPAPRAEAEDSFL
# Summary of the method: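 Purified human kinases incubated with ATP and substrate 1–2 h at 25 °C in 40 mM Tris-HCl pH 7.4, 20 mM MgCl2, BSA, DTT, compound over 12 concentrations (10–0.00005645 μM final). ADP formed quantified by ADP-Glo luminescence; IC50 from inhibition versus DMSO control, reported in bins A–D.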
# c-KIT D814Y = assay: Proliferation inhibitory activity on Ba/F3 cell (CellTiter-Glo, 72 hours), c-KIT D814Y; format: cell-based; conditions: Mus musculus, BaF3, c-KIT D814Y cells, read-out: Cell (nM) c-KIT D814Y (GI50 class)
# Method: as §1, §2
GI50 (Ba/F3-TEL-PDGFRα(WT)),GI50 (Ba/F3-c-KIT(D816V)),IC50 (c-KIT D816V),IC50 (human c-KIT(wt)),GI50 (Ba/F3-TEL-PDGFβ(WT)),GI50 (c-KIT V560G/D816V),IC50 (human PDGFR-α(wt)),IC50 (human PDGFR-β(wt)),GI50 (c-KIT D814Y),SMILES
≤ 200 nM,≤ 200 nM,≤ 0.05 µM,≤ 0.05 µM,≤ 200 nM,200 to 500 nM,≤ 0.05 µM,≤ 0.05 µM,–,"COc1cc2c(-c3ccc(NC(=O)Cc4ccc(C(F)(F)F)cc4)cc3)ncnc2cc1OC1CCN(C)CC1 [Example 2, N-(4-(6-methoxy-7-((1-methylpiperidin-4-yl)oxy)quinazolin-4-yl)phenyl)-2-(4-(trifluoromethyl)phenyl)acetamide]"
–,≤ 200 nM,–,–,≤ 200 nM,≤ 200 nM,–,–,≤ 200 nM,"CCN1CCCC(COc2cc3ncnc(-c4ccc(NC(=O)Cc5ccc(C(F)(F)F)cc5)cc4)c3cc2OC)C1 (stereo not drawn) [Example 18, N-(4-(7-((1-ethylpiperidin-3-yl)methoxy)-6-methoxyquinazolin-4-yl)phenyl)-2-(4-(trifluoromethyl)phenyl)acetamide]"
–,≤ 200 nM,–,–,≤ 200 nM,≤ 200 nM,–,≤ 0.05 µM,≤ 200 nM,"CCN1CCC(COc2cc3ncnc(-c4ccc(NC(=O)Cc5ccc(C(F)(F)F)cc5)cc4)c3cc2OC)CC1 [Example 4, N-(4-(7-((1-ethylpiperidin-4-yl)methoxy)-6-methoxyquinazolin-4-yl)phenyl)-2-(4-(trifluoromethyl)phenyl)acetamide]"
≤ 200 nM,–,≤ 0.05 µM,≤ 0.05 µM,≤ 200 nM,–,≤ 0.05 µM,0.05 to 0.1 µM,–,"CCN(CC)CCOc1cc2c(-c3ccc(NC(=O)Cc4ccc(F)cc4)cc3)ncnc2cc1OC [Example 122, N-(4-(6-(2-(diethylamino)ethoxy)-7-methoxyquinazolin-4-yl)phenyl)-2-(4-fluorophenyl)acetamide]"
–,≤ 200 nM,–,–,–,≤ 200 nM,–,≤ 0.05 µM,≤ 200 nM,"COc1cc2c(-c3ccc(NC(=O)Cc4ccc(C(F)(F)F)cc4)cc3)ncnc2cc1OCCCN1C[C@H]2C[C@@H]1CN2C [Example 31, N-(4-(6-methoxy-7-(3-((1R,4R)-5-methyl-2,5-diazabicyclo[2.2.1]heptane-2-yl)propoxy)quinazolin-4-yl)phenyl)-2-(4-(trifluoromethyl)phenyl)acetamide]"
–,≤ 200 nM,–,–,–,200 to 500 nM,–,≤ 0.05 µM,200 to 500 nM,"COc1cc2ncnc(-c3ccc(NC(=O)Cc4ccc(C(F)(F)F)cc4)cc3)c2cc1OCCN1CCN(C)CC1 [Example 131, N-(4-(7-methoxy-6-(2-(4-methylpiperazin-1-yl)ethoxy)quinazolin-4-yl)phenyl)-2-(4-(trifluoromethyl)phenyl)acetamide]"
≤ 200 nM,–,≤ 0.05 µM,≤ 0.05 µM,≤ 200 nM,≤ 200 nM,≤ 0.05 µM,≤ 0.05 µM,–,"COCCOc1cc2ncnc(-c3ccc(NC(=O)Cc4ccc(C(F)(F)F)cc4)cc3)c2cc1OCCOC [Example 57, N-(4-(6,7-bis(2-methoxyethoxy)quinazolin-4-yl)phenyl)-2-(4-(trifluoromethyl)phenyl)acetamide]"
–,≤ 200 nM,–,–,–,≤ 200 nM,–,≤ 0.05 µM,≤ 200 nM,"COCCN1CCC(COc2cc3ncnc(-c4ccc(NC(=O)Cc5ccc(C(F)(F)F)cc5)cc4)c3cc2OC)CC1 [Example 43, N-(4-(6-methoxy-7-((1-(2-methoxyethyl)piperidin-4-yl)methoxy)quinazolin-4-yl)phenyl)-2-(4-(trifluoromethyl)phenyl)acetamide]"
≤ 200 nM,≤ 200 nM,–,–,≤ 200 nM,> 500 nM,≤ 0.05 µM,≤ 0.05 µM,> 500 nM,"COc1cc2ncnc(-c3ccc(NC(=O)Cc4ccc(C(F)(F)F)cc4)cc3)c2cc1OC1CCNCC1 [Example 140, N-(4-(7-methoxy-6-(piperidin-4-yloxy)quinazolin-4-yl)phenyl)-2-(4-(trifluoromethyl)phenyl)acetamide]"
–,≤ 200 nM,–,–,–,200 to 500 nM,–,–,≤ 200 nM,"CCN1CCC(Oc2cc3c(-c4ccc(NC(=O)Cc5ccc(C(F)(F)F)cc5)cc4)ncnc3cc2OC)C1 (stereo not drawn) [Example 145, N-(4-(6-((1-ethylpyrrolidin-3-yl)oxy)-7-methoxyquinazolin-4-yl)phenyl)-2-(4-(trifluoromethyl)phenyl)acetamide]"
–,≤ 200 nM,–,–,–,≤ 200 nM,–,≤ 0.05 µM,≤ 200 nM,"COc1cc2c(-c3ccc(NC(=O)Cc4ccc(C(F)(F)F)cc4)cc3)ncnc2cc1OCCn1cccn1 [Example 30, N-(4-(7-(2-(1H-pyrazol-1-yl)ethoxy)-6-methoxyquinazolin-4-yl)phenyl)-2-(4-(trifluoromethyl)phenyl)acetamide]"
–,≤ 200 nM,–,–,–,≤ 200 nM,–,–,≤ 200 nM,"CCN1CCCC(COc2cc3c(-c4ccc(NC(=O)Cc5ccc(C(F)(F)F)cc5)cc4)ncnc3cc2OC)C1 (stereo not drawn) [Example 134, N-(4-(6-((1-ethylpiperidin-3-yl)methoxy)-7-methoxyquinazolin-4-yl)phenyl)-2-(4-(trifluoromethyl)phenyl)acetamide]"
–,≤ 200 nM,–,–,–,≤ 200 nM,–,–,≤ 200 nM,"COc1cc2ncnc(-c3ccc(NC(=O)Cc4ccc(C(F)(F)F)cc4)cc3)c2cc1OCCCN1CCN(C)CC1 [Example 126, N-(4-(7-methoxy-6-(3-(4-methylpiperazin-1-yl)propoxy)quinazolin-4-yl)phenyl)-2-(4-(trifluoromethyl)phenyl)acetamide]"
–,≤ 200 nM,–,–,–,≤ 200 nM,–,≤ 0.05 µM,≤ 200 nM,"CCN1CC[C@@H](COc2cc3ncnc(-c4ccc(NC(=O)Cc5ccc(C(F)(F)F)cc5)cc4)c3cc2OC)C1 [Example 40, (R)-N-(4-(7-((1-ethylpyrrolidin-3-yl)methoxy)-6-methoxyquinazolin-4-yl)phenyl)-2-(4-(trifluoromethyl)phenyl)acetamide]"
